system: esterase E011; experiment: Initial screening of ThermoGen esterases toward esters 1-31 (pH indicator), specific activity; format: biochemical; details: 1 mM substrate, pH 7.2, 7 vol % acetonitrile, 25° C.
Method: (§1) Initial screening measures the initial rate of hydrolysis of different esters. The rate of reaction was measured by monitoring the release of protons using a pH indicator, 4-nitrophenol. In this assay, the yellow color of the phenoxide disappears as the reaction proceeds. The amount of ester hydrolyzed can be measured quantitatively, as is known in the art.

Structure (SMILES) | Specific activity, esterase E011
CC(C(=O)Oc1ccc([N+](=O)[O-])cc1)c1ccccc1 (racemic) [Substrate 1, (±)-4-nitrophenyl-2-phenylpropanoate, reference compound] | 5.1 mmol ester hydrolyzed/min/mg protein
CC(C)Cc1ccc(C(C)C(=O)Oc2ccc([N+](=O)[O-])cc2)cc1 (racemic) [Substrate 2, (±)-4-nitrophenyl 2-(4-isobutylphenyl)propanoate, reference compound] | 160 mmol ester hydrolyzed/min/mg protein
NC(Cc1ccccc1)C(=O)Oc1ccc([N+](=O)[O-])cc1.O=C(O)C(F)(F)F (racemic) [Substrate 3, D,L-phenylalanine-4-nitrophenol ester TFA salt, reference compound] | 220 mmol ester hydrolyzed/min/mg protein
CCCC(=O)OCC1COC(C)(C)O1 (racemic) [Substrate 8, (±)-Solketal Butyrate, reference compound] | <0.1 mmol ester hydrolyzed/min/mg protein
C=COC(=O)CCCCC [Substrate 4] | 680 mmol ester hydrolyzed/min/mg protein
C=COC(=O)CCCCCCC [Substrate 5] | 260 mmol ester hydrolyzed/min/mg protein
CCCCCCCCCCCCCC(=O)Oc1ccc2nc3ccc(=O)cc-3oc2c1 [Substrate 6, Resorufin tetradecanoate, reference compound] | 280 mmol ester hydrolyzed/min/mg protein
C=COC(=O)CCCCCCCCCCCCC [Substrate 7] | 0.45 mmol ester hydrolyzed/min/mg protein
CCCCCCCC(=O)OCC [Substrate 15] | 11 mmol ester hydrolyzed/min/mg protein
CCOC(=O)CBr [Substrate 18] | 5.5 mmol ester hydrolyzed/min/mg protein
COC(=O)CBr [Substrate 19] | 1.6 mmol ester hydrolyzed/min/mg protein
COC(=O)Cc1ccccc1 [Substrate 22] | <0.1 mmol ester hydrolyzed/min/mg protein
COC(=O)c1ccc(CO)cc1 [Substrate 23] | <0.1 mmol ester hydrolyzed/min/mg protein
CCCOC(C)=O [Substrate 24] | 0.25 mmol ester hydrolyzed/min/mg protein

system: esterase E014; experiment: as above; format: biochemical; details: 1 mM substrate, pH 7.2, 7 vol % acetonitrile, 25° C.
Method: as §1
(§2) To survey the substrate selectivity of the ThermoGen esterases, the ability of the enzymes to hydrolyze thirty-one different commercially-available esters, Scheme 1 (FIG. 9, Table 6).

Structure (SMILES) | Specific activity, esterase E014
CC(C(=O)Oc1ccc([N+](=O)[O-])cc1)c1ccccc1 (racemic) [Substrate 1, (±)-4-nitrophenyl-2-phenylpropanoate, reference compound] | 1.2 mmol ester hydrolyzed/min/mg protein
CC(C)Cc1ccc(C(C)C(=O)Oc2ccc([N+](=O)[O-])cc2)cc1 (racemic) [Substrate 2, (±)-4-nitrophenyl 2-(4-isobutylphenyl)propanoate, reference compound] | 170 mmol ester hydrolyzed/min/mg protein
NC(Cc1ccccc1)C(=O)Oc1ccc([N+](=O)[O-])cc1.O=C(O)C(F)(F)F (racemic) [Substrate 3, D,L-phenylalanine-4-nitrophenol ester TFA salt, reference compound] | 180 mmol ester hydrolyzed/min/mg protein
CCCC(=O)OCC1COC(C)(C)O1 (racemic) [Substrate 8, (±)-Solketal Butyrate, reference compound] | <0.1 mmol ester hydrolyzed/min/mg protein
C=COC(=O)CCCCC [Substrate 4] | 540 mmol ester hydrolyzed/min/mg protein
C=COC(=O)CCCCCCC [Substrate 5] | 8.0 mmol ester hydrolyzed/min/mg protein
CCCCCCCCCCCCCC(=O)Oc1ccc2nc3ccc(=O)cc-3oc2c1 [Substrate 6, Resorufin tetradecanoate, reference compound] | 170 mmol ester hydrolyzed/min/mg protein
C=COC(=O)CCCCCCCCCCCCC [Substrate 7] | 0.81 mmol ester hydrolyzed/min/mg protein
CCCCCCCC(=O)OCC [Substrate 15] | 5.1 mmol ester hydrolyzed/min/mg protein
CCOC(=O)CBr [Substrate 18] | 37 mmol ester hydrolyzed/min/mg protein
COC(=O)CBr [Substrate 19] | 0.73 mmol ester hydrolyzed/min/mg protein
COC(=O)Cc1ccccc1 [Substrate 22] | <0.1 mmol ester hydrolyzed/min/mg protein
COC(=O)c1ccc(CO)cc1 [Substrate 23] | <0.1 mmol ester hydrolyzed/min/mg protein
CCCOC(C)=O [Substrate 24] | <0.1 mmol ester hydrolyzed/min/mg protein

system: esterase E020; experiment: as above; format: biochemical; details: 1 mM substrate, pH 7.2, 7 vol % acetonitrile, 25° C.
Method: as §1, §2

Structure (SMILES) | Specific activity, esterase E020
CC(C(=O)Oc1ccc([N+](=O)[O-])cc1)c1ccccc1 (racemic) [Substrate 1, (±)-4-nitrophenyl-2-phenylpropanoate, reference compound] | 110 mmol ester hydrolyzed/min/mg protein
CC(C)Cc1ccc(C(C)C(=O)Oc2ccc([N+](=O)[O-])cc2)cc1 (racemic) [Substrate 2, (±)-4-nitrophenyl 2-(4-isobutylphenyl)propanoate, reference compound] | 370 mmol ester hydrolyzed/min/mg protein
NC(Cc1ccccc1)C(=O)Oc1ccc([N+](=O)[O-])cc1.O=C(O)C(F)(F)F (racemic) [Substrate 3, D,L-phenylalanine-4-nitrophenol ester TFA salt, reference compound] | 550 mmol ester hydrolyzed/min/mg protein
CCCC(=O)OCC1COC(C)(C)O1 (racemic) [Substrate 8, (±)-Solketal Butyrate, reference compound] | <0.2 mmol ester hydrolyzed/min/mg protein
C=COC(=O)CCCCC [Substrate 4] | 3000 mmol ester hydrolyzed/min/mg protein
C=COC(=O)CCCCCCC [Substrate 5] | 1200 mmol ester hydrolyzed/min/mg protein
CCCCCCCCCCCCCC(=O)Oc1ccc2nc3ccc(=O)cc-3oc2c1 [Substrate 6, Resorufin tetradecanoate, reference compound] | 1200 mmol ester hydrolyzed/min/mg protein
C=COC(=O)CCCCCCCCCCCCC [Substrate 7] | 1.0 mmol ester hydrolyzed/min/mg protein
CCCCCCCC(=O)OCC [Substrate 15] | 2.6 mmol ester hydrolyzed/min/mg protein
CCOC(=O)CBr [Substrate 18] | 3.1 mmol ester hydrolyzed/min/mg protein
COC(=O)CBr [Substrate 19] | 1.6 mmol ester hydrolyzed/min/mg protein
COC(=O)Cc1ccccc1 [Substrate 22] | 0.28 mmol ester hydrolyzed/min/mg protein
COC(=O)c1ccc(CO)cc1 [Substrate 23] | 0.47 mmol ester hydrolyzed/min/mg protein
CCCOC(C)=O [Substrate 24] | 0.85 mmol ester hydrolyzed/min/mg protein

system: esterase E012; experiment: as above; format: biochemical; details: 1 mM substrate, pH 7.2, 7 vol % acetonitrile, 25° C.
Method: as §1, §2

Structure (SMILES) | Specific activity, esterase E012
CC(C(=O)Oc1ccc([N+](=O)[O-])cc1)c1ccccc1 (racemic) [Substrate 1, (±)-4-nitrophenyl-2-phenylpropanoate, reference compound] | 3.1 mmol ester hydrolyzed/min/mg protein
CC(C)Cc1ccc(C(C)C(=O)Oc2ccc([N+](=O)[O-])cc2)cc1 (racemic) [Substrate 2, (±)-4-nitrophenyl 2-(4-isobutylphenyl)propanoate, reference compound] | 11 mmol ester hydrolyzed/min/mg protein
NC(Cc1ccccc1)C(=O)Oc1ccc([N+](=O)[O-])cc1.O=C(O)C(F)(F)F (racemic) [Substrate 3, D,L-phenylalanine-4-nitrophenol ester TFA salt, reference compound] | 37 mmol ester hydrolyzed/min/mg protein
CCCC(=O)OCC1COC(C)(C)O1 (racemic) [Substrate 8, (±)-Solketal Butyrate, reference compound] | <2 mmol ester hydrolyzed/min/mg protein
C=COC(=O)CCCCC [Substrate 4] | 48 mmol ester hydrolyzed/min/mg protein
C=COC(=O)CCCCCCC [Substrate 5] | 50 mmol ester hydrolyzed/min/mg protein
CCCCCCCCCCCCCC(=O)Oc1ccc2nc3ccc(=O)cc-3oc2c1 [Substrate 6, Resorufin tetradecanoate, reference compound] | 27 mmol ester hydrolyzed/min/mg protein
C=COC(=O)CCCCCCCCCCCCC [Substrate 7] | 7.6 mmol ester hydrolyzed/min/mg protein
CCCCCCCC(=O)OCC [Substrate 15] | 19 mmol ester hydrolyzed/min/mg protein
CCOC(=O)CBr [Substrate 18] | 5.9 mmol ester hydrolyzed/min/mg protein
COC(=O)CBr [Substrate 19] | 2.4 mmol ester hydrolyzed/min/mg protein
COC(=O)Cc1ccccc1 [Substrate 22] | <2 mmol ester hydrolyzed/min/mg protein
COC(=O)c1ccc(CO)cc1 [Substrate 23] | <2 mmol ester hydrolyzed/min/mg protein
CCCOC(C)=O [Substrate 24] | 2.8 mmol ester hydrolyzed/min/mg protein

system: esterase E015; experiment: as above; format: biochemical; details: 1 mM substrate, pH 7.2, 7 vol % acetonitrile, 25° C.
Method: as §1, §2

Structure (SMILES) | Specific activity, esterase E015
CC(C(=O)Oc1ccc([N+](=O)[O-])cc1)c1ccccc1 (racemic) [Substrate 1, (±)-4-nitrophenyl-2-phenylpropanoate, reference compound] | 89 mmol ester hydrolyzed/min/mg protein
CC(C)Cc1ccc(C(C)C(=O)Oc2ccc([N+](=O)[O-])cc2)cc1 (racemic) [Substrate 2, (±)-4-nitrophenyl 2-(4-isobutylphenyl)propanoate, reference compound] | 350 mmol ester hydrolyzed/min/mg protein
NC(Cc1ccccc1)C(=O)Oc1ccc([N+](=O)[O-])cc1.O=C(O)C(F)(F)F (racemic) [Substrate 3, D,L-phenylalanine-4-nitrophenol ester TFA salt, reference compound] | 280 mmol ester hydrolyzed/min/mg protein
CCCC(=O)OCC1COC(C)(C)O1 (racemic) [Substrate 8, (±)-Solketal Butyrate, reference compound] | 0.16 mmol ester hydrolyzed/min/mg protein
C=COC(=O)CCCCC [Substrate 4] | 1100 mmol ester hydrolyzed/min/mg protein
C=COC(=O)CCCCCCC [Substrate 5] | 320 mmol ester hydrolyzed/min/mg protein
CCCCCCCCCCCCCC(=O)Oc1ccc2nc3ccc(=O)cc-3oc2c1 [Substrate 6, Resorufin tetradecanoate, reference compound] | 330 mmol ester hydrolyzed/min/mg protein
C=COC(=O)CCCCCCCCCCCCC [Substrate 7] | 3.0 mmol ester hydrolyzed/min/mg protein
CCCCCCCC(=O)OCC [Substrate 15] | 120 mmol ester hydrolyzed/min/mg protein
CCOC(=O)CBr [Substrate 18] | 100 mmol ester hydrolyzed/min/mg protein
COC(=O)CBr [Substrate 19] | 2.6 mmol ester hydrolyzed/min/mg protein
COC(=O)Cc1ccccc1 [Substrate 22] | 0.14 mmol ester hydrolyzed/min/mg protein
COC(=O)c1ccc(CO)cc1 [Substrate 23] | 0.13 mmol ester hydrolyzed/min/mg protein
CCCOC(C)=O [Substrate 24] | 0.26 mmol ester hydrolyzed/min/mg protein

system: esterase E006; experiment: as above; format: biochemical; details: 1 mM substrate, pH 7.2, 7 vol % acetonitrile, 25° C.
Method: as §1, §2

Structure (SMILES) | Specific activity, esterase E006
CC(C(=O)Oc1ccc([N+](=O)[O-])cc1)c1ccccc1 (racemic) [Substrate 1, (±)-4-nitrophenyl-2-phenylpropanoate, reference compound] | 120 mmol ester hydrolyzed/min/mg protein
CC(C)Cc1ccc(C(C)C(=O)Oc2ccc([N+](=O)[O-])cc2)cc1 (racemic) [Substrate 2, (±)-4-nitrophenyl 2-(4-isobutylphenyl)propanoate, reference compound] | 260 mmol ester hydrolyzed/min/mg protein
NC(Cc1ccccc1)C(=O)Oc1ccc([N+](=O)[O-])cc1.O=C(O)C(F)(F)F (racemic) [Substrate 3, D,L-phenylalanine-4-nitrophenol ester TFA salt, reference compound] | 410 mmol ester hydrolyzed/min/mg protein
CCCC(=O)OCC1COC(C)(C)O1 (racemic) [Substrate 8, (±)-Solketal Butyrate, reference compound] | 0.13 mmol ester hydrolyzed/min/mg protein
C=COC(=O)CCCCC [Substrate 4] | 1700 mmol ester hydrolyzed/min/mg protein
C=COC(=O)CCCCCCC [Substrate 5] | 960 mmol ester hydrolyzed/min/mg protein
CCCCCCCCCCCCCC(=O)Oc1ccc2nc3ccc(=O)cc-3oc2c1 [Substrate 6, Resorufin tetradecanoate, reference compound] | 0.55 mmol ester hydrolyzed/min/mg protein
C=COC(=O)CCCCCCCCCCCCC [Substrate 7] | 0.61 mmol ester hydrolyzed/min/mg protein
CCCCCCCC(=O)OCC [Substrate 15] | 160 mmol ester hydrolyzed/min/mg protein
CCOC(=O)CBr [Substrate 18] | 4.8 mmol ester hydrolyzed/min/mg protein
COC(=O)CBr [Substrate 19] | 1.9 mmol ester hydrolyzed/min/mg protein
COC(=O)Cc1ccccc1 [Substrate 22] | 0.16 mmol ester hydrolyzed/min/mg protein
COC(=O)c1ccc(CO)cc1 [Substrate 23] | 0.27 mmol ester hydrolyzed/min/mg protein
CCCOC(C)=O [Substrate 24] | 0.31 mmol ester hydrolyzed/min/mg protein

system: esterase E016; experiment: as above; format: biochemical; details: 1 mM substrate, pH 7.2, 7 vol % acetonitrile, 25° C.
Method: as §1, §2

Structure (SMILES) | Specific activity, esterase E016
CC(C(=O)Oc1ccc([N+](=O)[O-])cc1)c1ccccc1 (racemic) [Substrate 1, (±)-4-nitrophenyl-2-phenylpropanoate, reference compound] | 63 mmol ester hydrolyzed/min/mg protein
CC(C)Cc1ccc(C(C)C(=O)Oc2ccc([N+](=O)[O-])cc2)cc1 (racemic) [Substrate 2, (±)-4-nitrophenyl 2-(4-isobutylphenyl)propanoate, reference compound] | 220 mmol ester hydrolyzed/min/mg protein
NC(Cc1ccccc1)C(=O)Oc1ccc([N+](=O)[O-])cc1.O=C(O)C(F)(F)F (racemic) [Substrate 3, D,L-phenylalanine-4-nitrophenol ester TFA salt, reference compound] | 230 mmol ester hydrolyzed/min/mg protein
CCCC(=O)OCC1COC(C)(C)O1 (racemic) [Substrate 8, (±)-Solketal Butyrate, reference compound] | 2.2 mmol ester hydrolyzed/min/mg protein
C=COC(=O)CCCCC [Substrate 4] | 1300 mmol ester hydrolyzed/min/mg protein
C=COC(=O)CCCCCCC [Substrate 5] | 1200 mmol ester hydrolyzed/min/mg protein
CCCCCCCCCCCCCC(=O)Oc1ccc2nc3ccc(=O)cc-3oc2c1 [Substrate 6, Resorufin tetradecanoate, reference compound] | 15 mmol ester hydrolyzed/min/mg protein
C=COC(=O)CCCCCCCCCCCCC [Substrate 7] | 21 mmol ester hydrolyzed/min/mg protein
CCCCCCCC(=O)OCC [Substrate 15] | 83 mmol ester hydrolyzed/min/mg protein
CCOC(=O)CBr [Substrate 18] | 16 mmol ester hydrolyzed/min/mg protein
COC(=O)CBr [Substrate 19] | 7.6 mmol ester hydrolyzed/min/mg protein
COC(=O)Cc1ccccc1 [Substrate 22] | <2 mmol ester hydrolyzed/min/mg protein
COC(=O)c1ccc(CO)cc1 [Substrate 23] | <2 mmol ester hydrolyzed/min/mg protein
CCCOC(C)=O [Substrate 24] | <2 mmol ester hydrolyzed/min/mg protein

Reference: patent US20020177180A1, “pH-indicator based assay for selective enzymes” (ThermoGen, Inc., priority 1998, published 2002)
